The results in this text go back to US20040192764A1 (H. Lundbeck A/S, priority 2001, published 2004).

Molecules are shown by their SMILES.

This assay is described as follows: pharmacological and clinical studies (potency versus racemate, influence of R-citalopram). The class given is in vivo. The note with it: presence of R-citalopram. The text has this: This may be shown in functional in-vivo pharmacological models and studies of 5-HT-reuptake effect and or in behaviour models, for example depression models.

In the case of `CN(C)CCC[C@]1(c2ccc(F)cc2)OCc2cc(C#N)ccc21` [R-citalopram], the “influence on the effect of escitalopram” value is reported as “negative impact on the effect of escitalopram”.
